Key:
[1] = Percent encapsulation of mRNA in lipid nanoparticles (Quant-iT Ribogreen); assay type: physicochemical; conditions: Table 2; leptin mRNA in LNP with the cationic lipid
Procedure: All equipment and disposable supplies are certified free of RNase activity by the manufacturer or rendered RNase free by use of the RNaseZap reagent (LifeTechnologies). mRNA is encapsulated at a cationic lipid amine to mRNA phosphate (N:P) molar ratio of 4:1. Lipids (cationic lipid, DSPC, cholesterol and lipidated PEG or stealth lipid) are dissolved in ethanol. The molar ratios are 40:10:38:2, respectively. The mixture is sonicated briefly, then gently agitated for 5 minutes and then maintained at 37° C. until use. mRNA is exchanged into citrate buffer pH 5.8-6.0 by use of Amicon Ultra-15 centrifugal concentrators, and the final concentration is adjusted to 0.5 mg/ml and held at 37° C. until use. An equal volume of lipids in ethanol, mRNA in citrate buffer, and citrate buffer alone are drawn into disposable syringes. Tubing leading from syringes containing lipids and mRNA are attached to the T junction, and tubing leading from the syringe containing citrate buffer alone is paired with the tubing exiting the T-junction over a collection vessel containing a stir bar on an active stir plate. Syringes are placed in a syringe pump set to expel contents at a flow rate of 1 ml per minute.
The pump is activated, and the collected mRNA in lipid nanoparticles is transferred to SnakeSkin dialysis tubing (10,000 MWCO, Thermo Scientific). Material is dialyzed against RNAse- and pyrogen-free 1× phosphate buffered saline overnight at 4° C.
Percent encapsulation of mRNA in lipid nanoparticles is determined using the Quant-iT Ribogreen RNA Assay kit (Life Technologies). The LNP-mRNA suspension is assayed in buffer (mRNA outside the particle), and buffer plus Triton X-100 detergent (total mRNA). The difference calculated is the mRNA inside the particle. Prepare a 1000 ng/mL stock from the RNA provided in the kit and use this to generate a standard curve (0 ng/ml, 15.63-1000 ng/ml) in TE and TE+0.75% Triton X-100. Prepare LNP-mRNA samples in TE buffer and TE buffer +0.75% Triton X-100 with appropriate dilution so that reading is in the range of standard curve (400-2,000 fold). In a 384-well plate (Costar non-treated #3573) add 0.04 ml of standard (in duplicate) or sample (in triplicate) per well. Dilute Ribogreen reagent 240-fold in TE buffer and add 0.06 ml per well. Mix contents of wells and measure fluorescence (excitation=480 nm, emission=520 nm). Subtract background values (no RNA) from standard and test sample values and determine the concentrations of RNA in the samples using the standard curves. Determine the percent encapsulation of the sample by dividing the difference in concentrations between sample+triton and sample in buffer alone by the sample+triton concentration.

[2] = siRNA encapsulation in lipid nanoparticles (SYBR Gold); assay type: physicochemical; conditions: Table 2; FVII siRNA in LNP with the cationic lipid
Procedure: The lipid nanoparticles (LNPs) were formed by mixing equal volumes of lipids dissolved in alcohol with siRNA dissolved in a citrate buffer by an impinging jet process. The lipid solution contains a cationic lipid compound of the invention, a helper lipid (cholesterol), an optional neutral lipid (DSPC) and a PEG (PEG) lipid at a concentration of 8-16 mg/mL with a target of 12 mg/mL in an alcohol. The siRNA to total lipid ratio is approximately 0.05 (wt/wt). Where a LNP formulation contains four lipid components, the molar ratios of the lipids ranges from 20 to 70 mole percent for the cationic lipid with a target of 40-60, the mole percent of helper lipid ranges from 20 to 70 with a target of 30 to 50, the mole percent of neutral lipid ranges from 0-30, the mole percent of PEG lipid has a range from 1 to 6 with a target of 2 to 5. The concentration of siRNA solution ranges from 0.7 to 1.0 mg/mL with a target of 0.8 to 0.9 mg/mL in a sodium citrate: sodium chloride buffer pH 4-6, with a target of 4.5-5.5. The LNPs are formed by mixing equal volumes of lipid solution in ethanol with siRNA dissolved in a citrate buffer by an impinging jet process through a mixing device with ID ranging from 0.25 to 2.0 mm at a flow rate from 10 to 640 mL/min. The mixed LNP solution is held at room temperature for 0-24 hrs prior to a dilution step. The solution is then concentrated and diafiltered with suitable buffer by ultrafiltration or dialysis process using membranes with a MW cutoff from 30 to 500 KD. The final product is sterile filtered and stored at 4° C.
The lipid nanoparticles (LNPs) were formed by mixing equal volumes of lipids dissolved in alcohol with siRNA dissolved in a citrate buffer by an impinging jet process. The lipid solution contains a cationic lipid compound of the invention, a helper lipid (cholesterol), an optional neutral lipid (DSPC) and a stealth lipid (5010, S024, S027, or S031) at a concentration of 8-16 mg/mL with a target of 12 mg/mL in an alcohol. The siRNA to total lipid ratio is approximately 0.05 (wt/wt). Where a LNP formulation contains four lipid components, the molar ratios of the lipids ranges from 20 to 70 mole percent for the cationic lipid with a target of 40-60, the mole percent of helper lipid ranges from 20 to 70 with a target of 30 to 50, the mole percent of neutral lipid ranges from 0-30, the mole percent of PEG lipid has a range from 1 to 6 with a target of 2 to 5. The concentration of siRNA solution ranges from 0.7 to 1.0 mg/mL with a target of 0.8 to 0.9 mg/mL in a sodium citrate: sodium chloride buffer pH 4-6, with a target of 4.5-5.5. The LNPs are formed by mixing equal volumes of lipid solution in ethanol with siRNA dissolved in a citrate buffer by an impinging jet process through a mixing device with ID ranging from 0.25 to 2.0 mm at a flow rate from 10 to 640 mL/min. The mixed LNP solution is held at room temperature for 0-24 hrs prior to a dilution step. The solution is then concentrated and diafiltered with suitable buffer by ultrafiltration process using membranes with a MW cutoff from 30 to 500 KD. The final product is sterile filtered and stored at 4° C.
SYBR Gold flourescence reagent is used for the determination of siRNA encapsulation in the DLP's. DLP's with and without triton x-100 are used to determine the free siRNA and total siRNA amounts. DLP's samples with and without triton X-100 were excited at 485 nm and flourescence emission is measured at 530 nm. Encapsulation efficiency is calculated based on the following formula: Encapsulation efficiency:[([…])/(total siRNA concentration)]×100% Encapsulation Data

| Structure (SMILES) | % encapsulation mRNA Leptin [1] [%] | % encapsulation siRNA FVII [2] [%] |
| --- | --- | --- |
| CCCCCCCCCCCCC(CCOC(=O)CCCCCC(COC(=O)CCCCCCC)COC(=O)CCCCCCC)OC(=O)OCCCN(CC)CC (stereo not drawn) [Example 6, 2-(10-dodecyl-3-ethyl-8,14-dioxo-7,9,13-trioxa-3-azanonadecan-19-yl)propane-1,3-diyl dioctanoate] | 24.0 | 91.7 |
| CCCCCCCCCCCCC(CCOC(=O)CCCCCCC(COC(=O)CCCCCCC)COC(=O)CCCCCCC)OC(=O)OCCCN(CC)CC (stereo not drawn) [Example 9, 2-(10-dodecyl-3-ethyl-8,14-dioxo-7,9,13-trioxa-3-azaicosan-20-yl)propane-1,3-diyl dioctanoate] | 96.6 | 91.0 |
| CCCCCCCCCCCCC(CCOC(=O)CCCCCCC(COC(=O)CCCCCCC)COC(=O)CCCCCCC)OC(=O)OCCCN(C)C (stereo not drawn) [Example 10, 2-(9-dodecyl-2-methyl-7,13-dioxo-6,8,12-trioxa-2-azanonadecan-19-yl)propane-1,3-diyl dioctanoate] | 88.4 | 89.9 |
| CCCCCCCCCCCCC(CCOC(=O)CCC(OCCCCCCCC)OCCCCCCCC)OC(=O)OCCCN(CC)CC (stereo not drawn) [Example 11, 3-(((3-(diethylamino)propoxy)carbonyl)oxy)pentadecyl 4,4-bis(octyloxy)butanoate] | 98.2 | 89.7 |
| CCCCCCCCCCCCC(CCOC(=O)CCC(OCC(CCC)CCC)OCC(CCC)CCC)OC(=O)OCCCN(CC)CC (stereo not drawn) [Example 13, 3-(((3-(diethylamino)propoxy)carbonyl)oxy)pentadecyl 4,4-bis((2-propylpentyl)oxy)butanoate] | 81.1 | 90.3 |
| CCCCCCCCCCCCC(CCOC(=O)CCC(OCC(CCC)CCC)OCC(CCC)CCC)OC(=O)OCCCN(C)CC (stereo not drawn) [Example 14, 3-(((3-(ethyl(methyl)amino)propoxy)carbonyl)oxy)pentadecyl 4,4-bis((2-propylpentyl)oxy)butanoate] | 99.4 | 88.0 |
| CCCCCCCCCCCCC(CCOC(=O)CCC(OCC(CCC)CCC)OCC(CCC)CCC)OC(=O)OCCCN(C)C (stereo not drawn) [Example 15, 3-(((3-(dimethylamino)propoxy)carbonyl)oxy)pentadecyl 4,4-bis((2-propylpentyl)oxy)butanoate] | 98.9 | 91.0 |
| CCCCCCCCCCCCC(CCOC(=O)CCCCC(OCCCCCC)OCCCCCC)OC(=O)OCCCN(CC)CC (stereo not drawn) [Example 17, 3-(((3-(diethylamino)propoxy)carbonyl)oxy)pentadecyl 6,6-bis(hexyloxy)hexanoate] | 84.6 | 88.3 |
| CCCCCCCCCCCCC(CCOC(=O)CCCCCCC(OCC(CCC)CCC)OCC(CCC)CCC)OC(=O)OCCCN(CC)CC (stereo not drawn) [Example 21, 3-(((3-(diethylamino)propoxy)carbonyl)oxy)pentadecyl 8,8-bis((2-propylpentyl)oxy)octanoate] | 98.2 | 91.2 |

Continued, values first:

| % encapsulation mRNA Leptin [1] [%] | % encapsulation siRNA FVII [2] [%] | Structure (SMILES) |
| --- | --- | --- |
| 99.2 | 91.7 | CCCCCCCCCCCCC(CCOC(=O)CCCCCCC(OCC(CCC)CCC)OCC(CCC)CCC)OC(=O)OCCCN(C)CC (stereo not drawn) [Example 22, 3-(((3-(ethyl(methyl)amino)propoxy)carbonyl)oxy)pentadecyl 8,8-bis((2-propylpentyl)oxy)octanoate] |
| 98.0 | 92.0 | CCCCCCCCCCCCC(CCOC(=O)CCCCCCC(OCC(CCC)CCC)OCC(CCC)CCC)OC(=O)OCCCN(C)C (stereo not drawn) [Example 23, 3-(((3-(dimethylamino)propoxy)carbonyl)oxy)pentadecyl 8,8-bis((2-propylpentyl)oxy)octanoate] |
| 88.2 | 86.4 | CCCCC/C=C\C/C=C\CCCCCCCC(=O)OCCC(CCCCCCCCCCCC)OC(=O)OCCCN(C)CC (stereo not drawn) [Example 45, (9Z,12Z)-3-(((3-(ethyl(methyl)amino)propoxy)carbonyl)oxy)pentadecyl octadeca-9,12-dienoate] |
| 83.1 | 77.5 | CCCCCCCCCCCCCC(=O)OCC(COC(=O)CCCCCCCCCCCCC)OC(=O)CCC(CCCCCCCCCCCC)OC(=O)OCCCN(CC)CC (stereo not drawn) [Example 84, 2-((4-(((3-(diethylamino)propoxy)carbonyl)oxy)hexadecanoyl)oxy)propane-1,3-diyl ditetradecanoate] |
| 39.2 | 77.4 | CCCCCCCCCCCCC(CCC(=O)OC(COC(=O)CCCCCCCCCCC)COC(=O)CCCCCCCCCCC)OC(=O)OCCCN(CC)CC (stereo not drawn) [Example 88, 2-((4-(((3-(diethylamino)propoxy)carbonyl)oxy)hexadecanoyl)oxy)propane-1,3-diyl didodecanoate] |
| 72.5 | 83.2 | CCCCC/C=C\C/C=C\CCCCCCCC(=O)OCCN(CCOC(=O)CCCCCCC/C=C\C/C=C\CCCCC)C(=O)CCC(CCCCCCCCCCCC)OC(=O)OCCCN(CC)CC (stereo not drawn) [Example 103, (9Z,12Z)-10-dodecyl-3-ethyl-14-(2-((9Z,12Z)-octadeca-9,12-dienoyloxy)ethyl)-8,13-dioxo-7,9-dioxa-3,14-diazahexadecan-16-yl octadeca-9,12-dienoate] |
